Experimental data: patent publication US12533338B2, “Enhanced gene delivery to natural killer cells, hematopoietic stem cells and macrophages” (priority 2015, dated 2026)
“Also recorded” adds a separate entry of the source. Where two headings read alike, the source gives them in different places.

Columns and labels:
[1] = test system: primary human NK cells; experiment: Lentiviral transduction (LeGO-G2, GFP expression) of primary NK cells; type: cell-based; conditions: 6 μM during lentiviral transduction, FIG. 1
Method: (§1) FIG. 1 contains two bar graphs showing the inhibition of innate immune signaling with iX enhances lentiviral transduction efficiency in NK cells. NK-92 cells and primary human NK cells isolated from healthy donor PBMCs were subjected to lentiviral transduction in the presence of 6 μM BX795 or iX for 6 hours. GFP expression is acquired 72 hours later. +cell percentages are shown on graph.
[…]. Next day cells were transfected with 30 μg of LeGO-G2 plasmid (courtesy of Prof. Boris Fehse, University Medical Center Hamburg-Eppendorf, Hamburg, Germany), 15 μg of pMDLg/pRRE (Addgene, Cambridge, Mass., USA), 10 μg of pRSV-REV (Addgene) and 5 μg of phCMV-VSV-G (Addgene) using calcium phosphate transfection kit (Sigma-Aldrich) in the presence of 25 μM Chloroquine (Sigma-Aldrich). […]
The peripheral blood mononuclear cells (PBMCs) were isolated by gradient centrifugation, using Lymphoprep (Nyegaard, Oslo, Norway) and washed twice with phosphate-buffered saline (PBS) (GIBCO, Grand Island, N.Y., USA). Cell count and viability were assessed by Turk and Trypan Blue dye exclusion. […]
(§2) All antibody stainings for flow cytometry were done according to the following protocol: For surface stainings, the cells were washed once with PBS and incubated with appropriate amounts of antibody at 4° C. for 30 min. […] Data were analysed with the FlowJo software (TreeStar Inc.). […]

[2] = test system: NK-92 cells; experiment: Lentiviral transduction (GFP expression) of NK-92 cell line; type: cell-based, human; conditions: 6 μM during lentiviral transduction, NK-92, FIG. 1
Method: as §1
[…]. Next day cells were transfected with 30 μg of LeGO-G2 plasmid (courtesy of Prof. Boris Fehse, University Medical Center Hamburg-Eppendorf, Hamburg, Germany), 15 μg of pMDLg/pRRE (Addgene, Cambridge, Mass., USA), 10 μg of pRSV-REV (Addgene) and 5 μg of phCMV-VSV-G (Addgene) using calcium phosphate transfection kit (Sigma-Aldrich) in the presence of 25 μM Chloroquine (Sigma-Aldrich). 10 hours after transfection, the medium was changed and thereafter virus containing supernatant was collected every 24 hours for 2-3 days and stored in −80° C. until further use. A small aliquot from each production was used to determine viral titers by transduction of 293FT cells with serially diluted amounts of virus supernatant. […]
as §2

[3] = test system: NK cells; experiment: Dose dependence of lentiviral transduction with LeGO-G2 virus, GFP+ cells by flow cytometry; type: cell-based, human
Method: Primary human NK cells and NK-92 cells are transduced with LeGO-G2 virus in the presence of varying doses of BX795 or iX for 6 hours. GFP expression is analyzed by flow cytometry 72 hours after transduction. GFP+ cell percentages are shown on graph. Data from three independent experiments, each run in triplicates.
For each lentiviral transduction, 0.25×10^6 NK cells per well were seeded in a 24-well plate (BD Biosciences) and mixed with an appropriate amount of virus supernatant in the presence of 8 μg/ml of protamine sulfate (Sigma-Aldrich) or polybrene (Sigma-Aldrich) in a final volume of no more than 1 ml. The cytokines were replenished and plates were centrifuged at 1000×g for 1 hour at room temperature. After centrifugation, without removing viral supernatants, the plates were incubated at 37° C., 5% CO2 for 4-6 hours. At the end of the incubation, a second centrifugation at 1000×g for 1 hour at room temperature was carried out, after which the supernatants were removed from the wells and 1 ml of fresh NK cell growth medium (CellGro SCGM supplemented with 10% Human AB Serum) per well was added. The cells were maintained in this medium with daily addition cytokines (IL-2: 1000 U/ml, and IL-21: 20 ng/ml. Combinations of cytokines were used as indicated in FIG. 1. Only IL-2 and IL-21 were used in the rest of the experiments) for at least 3 days before acquisition of eGFP expression was carried out. In indicated experiments, the following inhibitors were present during the transduction: BX795 (Invivogen) and (5Z)-7-Oxozeaenol (iX) (Tocris).
For the transduction of cell lines, 2×10^5 cells per well were seeded into 24-well plates. Treatment with 6 μM BX795 and (5Z)-7-Oxozeaenol (iX) was initiated simultaneously with the transduction process. Appropriate amount of viral supernatants were added into the wells along with protamine sulfate (NK92, cells) and the total volume was adjusted to 500 μl. The plates were centrifuged at 1000×g for 1 hour followed by incubation at 37° C., 5% CO2 for 4-6 hours, after which the virus containing supernatant was removed and fresh growth media was added. The cells were grown for at least 3 days before acquisition of eGFP expression was carried out.
All antibody stainings for flow cytometry were done according to the following protocol: For surface stainings, the cells were washed once with PBS and incubated with appropriate amounts of antibody at 4° C. for 30 min. The labeled cells were then washed with PBS and fixed in 1% PFA prior to data acquisition. Data acquisition was done on a FACSCalibur (BD Biosciences), CyFlow ML (Partec GmbH, Munster, Germany) and LSRII-Fortessa (BD Biosciences) with standard filters. Data were analysed with the FlowJo software (TreeStar Inc.). […]

[4] = test system: CD34+ HSCs; experiment: CRISPR/Cas9 gene editing of Beta 2 Microglobulin, loss of B2M expression by flow cytometry; type: cell-based, human; conditions: 1 μM iX, hematopoietic stem cells, FIG. 7, n=4
From the text: (§3) The recent emergence of the clustered, regularly interspaced, palindromic repeats (CRISPR) system for gene editing has the potential to overcome these limitations. The CRISPR technology utilizes a fixed nuclease, often the CRISPR-associated protein 9 (Cas9) from Streptococcus pyogenes, in combination with a short guide RNA (gRNA) to target the nuclease to a specific DNA sequence. We confirmed that gRNA recognition and thus editing efficacy could be increased with introduction of iX inhibitor. […]
(§4) The following commercially available guide RNAs from Origene Technologies were tested against Beta 2 Microglobulin: […] […] 48 hours post-transfection, cells were stained with anti-B2M antibody (clone:2M2, Biolegend) to compare loss of (32 m expression. Cells were then analysed using flowcytometry as described below.
as §2

[5] = test system: NK92 cell line; experiment: as above; type: cell-based, human; conditions: 1 μM iX, NK cells (NK92), FIG. 7, n=4
From the text: as §3, §4, §2

[6] = test system: Human primary macrophages; experiment: as above; type: cell-based; conditions: 1 μM iX, FIG. 7, n=4
From the text: as §3, §4, §2

[7] = test system: NK cells; experiment: Annexin-V/PI staining for toxicity; type: cell-based; conditions: for toxicity on NK cells (apoptotic and dead cells) compared to DMSO controls: 1.5 μM; for toxicity on NK cells (apoptotic and dead cells): 6 μM
From the text: FIG. 2B contains two bar graphs comparing apoptotic to dead Annexin −V^+/PI^−cells.
Remarkably, the use of iX at the optimum concentration presents no immediate toxic effects on NK cells as determined by Annexin-V/PI staining after […] treatment (FIG. 2b).

[8] = test system: RIG-I; experiment: RIG-I expression at protein level during lentiviral transduction; type: cell-based; conditions: for change in RIG-I expression at the protein level: after the 6 hour transduction period; for change in RIG-I expression: at 24 hours, FIG. 3
From the text: (§5) FIG. 3 contains photos of a gel showing iX treatment during lentiviral transduction decreases RIG-I and IRF-3.

[9] = test system: IRF3; experiment: IRF3 expression at protein level during lentiviral transduction; type: cell-based; conditions: for change in IRF3 expression at the protein level: after the 6 hour transduction period; for change in IRF3 expression: at 24 hours, FIG. 3
From the text: as §5

[10] = test system: NK92 cells; experiment: IFNγ secretion upon exposure to lentiviral particles; type: cell-based, human; conditions: FIG. 4
From the text: FIG. 4 contains two bar graphs showing that iX treatment interferes with anti-viral cytokines IFNγ and TNF secretion.
(FIG. 4). […] (FIG. 4). […] (FIG. 4).

[11] = test system: NK-92 cells; experiment: Gene expression profiling by RNAseq during lentiviral transduction; type: cell-based, human; conditions: end of 6 hour transduction, FIGS. 6A-H
Method: Gene expression profiling by RNAseq for identification of pathways triggered by lentivirus entry in the absence and presence of small molecule inhibitors are assessed. NK-92 cells are transduced as previously described. At the end of the 6 hour transduction protocol, RNA from the cells is extracted and sequenced on a HiSeq 2500 instrument. After quality control, the reads are mapped to the human genome using the STAR aligner and gene abundance is estimated with HT-Seq. Differential expression is analyzed using DeSeq software. […] (FIG. 5).

[12] = test system: NK cells; conditions: cited from earlier work

SMILES | optimum dose for lentiviral gene delivery ([3]; NK cells) [µM] | toxicity on NK cells (apoptotic and dead cells) compared to DMSO controls [7] | toxicity on NK cells (apoptotic and dead cells) [7] | change in RIG-I expression at the protein level [8] | change in RIG-I expression [8] | change in IRF3 expression at the protein level [9] | change in IRF3 expression [9] | effect on anti-viral response pathways at mRNA level [11] | other results
COc1cc(O)c2c(c1)/C=C/C[C@H](O)[C@H](O)C(=O)/C=C\C[C@H](C)OC2=O [iX, (5Z)-7-Oxozeaenol] | 1.5 | no significant toxicity | no signs of immediate toxicity | not detectable | significant decrease | not detectable | significant decrease | affected pathways associated with anti-viral responses | improvement in lentiviral gene delivery [1]: statistically significant improvement; improvement in lentiviral gene delivery [2]: statistically significant improvement; enhancement of lentiviral gene delivery compared to BX795 ([3]; NK cells): to a further extent; also recorded: significantly higher extent; effect of concentration on genetic modification efficiency ([3]; varying doses, FIG. 2A): dose-dependent effect; β2M gene editing efficacy [4]: increased (32M editing significantly; β2M gene editing efficacy [5]: increased (32M editing significantly; β2M gene editing efficacy [6]: increased (32M editing significantly; extent of downregulation in RIG-I compared to BX795 [8]: significantly more; extent of downregulation in IRF3 compared to BX795 [9]: significantly more; secretion of IFNγ ([10]; six hours, during lentiviral gene delivery): significantly decreased
O=C(NCCCNc1nc(Nc2cccc(NC(=O)N3CCCC3)c2)ncc1I)c1cccs1 [BX795] | 6 | no toxicity | quite small but statistically significant increase | not detectable | significant decrease | not detectable | significant decrease | failed to fully suppress similar anti-viral responses | secretion of IFNγ ([10]; 24 hours after exposure to lentiviral particles): significantly trigger similar effect; transduction efficiency in NK cells ([12]; previously reported (Sutlu et al., 2012)): dramatically increases; effect of concentration on genetic modification efficiency ([12]; shown previously): dose-dependent effect
